PubChem BioAssay AID743483 (Broad Institute, 2014)
The source made the active and inactive calls.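 How the source made its calls: active means cell killing, with a fitted active concentration at or below twice the top valid dose tested; inconclusive means flat partial cell loss, or a poor curve fit; inactive means effect in the rising direction, plus the rest.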

System: A549 viability, CellTiter-Glo ATP luminescence, 72 h
Assay: A549 lung cell viability reduction – CellTiter-Glo luminescence, dry powder, cytotoxicity control, dose response (AID 743483)
Details: not given

Compound	IC50 [µM]
COc1ccc(S(=O)(=O)N(C)C[C@@H]2OCCCC[C@H](C)Oc3ccc(NS(=O)(=O)c4ccc(Cl)cc4)cc3C(=O)N([C@@H](C)CO)C[C@@H]2C)cc1	22.1
C[C@@H]1CN([C@@H](C)CO)C(=O)c2cc(NC(=O)C3CCCCC3)ccc2O[C@@H](C)CCCCO[C@H]1CN(C)C(=O)Nc1cccc2ccccc12	6.41
C[C@H]1CCCCO[C@@H](CN(C)S(=O)(=O)c2ccc(Cl)cc2)[C@@H](C)CN([C@@H](C)CO)C(=O)c2cc(NC(=O)NC3CCCCC3)ccc2O1	19.1
C[C@@H]1CN([C@H](C)CO)C(=O)c2cc(NC(=O)C3CCCCC3)ccc2O[C@@H](C)CCCCO[C@H]1CN(C)C(=O)Nc1cccc2ccccc12	21.8

System: not listed separately
Assay: as above
Details: A549 viability, CellTiter-Glo ATP luminescence, 72 h; at 12 µM (top of the series)

Compound	activity change, negative = cytotoxicity
C[C@H](CO)N1C[C@H](C)[C@H](CN(C)C(=O)Nc2ccccc2)OCCCC[C@H](C)Oc2ccc(NC(=O)CCC(F)(F)F)cc2C1=O	12.7% (inactive)
C[C@H](CO)N1C[C@H](C)[C@H](CN(C)C(=O)Nc2ccc(F)cc2)OCCCC[C@H](C)Oc2ccc(NC(=O)C3CCCC3)cc2C1=O	12.9% (inactive)

Same assay, conditions: A549 viability, CellTiter-Glo ATP luminescence, 72 h; at 26 µM (top of the series)

Compound	activity change, negative = cytotoxicity
C[C@@H]1CCCCO[C@H](CN(C)C(=O)Nc2cccc3ccccc23)[C@H](C)CN([C@@H](C)CO)C(=O)c2cc(NC(=O)C3CCCCC3)ccc2O1	-22.6% (inactive)
C[C@H](CO)N1C[C@H](C)[C@H](CN(C)C(=O)Nc2cccc3ccccc23)OCCCC[C@H](C)Oc2ccc(NC(=O)NC3CCCCC3)cc2C1=O	-18.8% (inactive)
C[C@H](CO)N1C[C@H](C)[C@H](CN(C)C(=O)Nc2ccc(F)cc2)OCCCC[C@H](C)Oc2ccc(NC(=O)C3CCOCC3)cc2C1=O	4.42% (inactive)
C[C@H](CO)N1C[C@H](C)[C@H](CN(C)C(=O)Nc2ccccc2)OCCCC[C@H](C)Oc2ccc(NC(=O)NC3CCCCC3)cc2C1=O	-4.06% (inactive)
C[C@H](CO)N1C[C@H](C)[C@H](CN(C)C(=O)Nc2ccc(F)cc2)OCCCC[C@H](C)Oc2ccc(NC(=O)C3CCCCCC3)cc2C1=O	-13.4% (inactive)
C[C@@H]1CN([C@@H](C)CO)C(=O)c2cc(NC(=O)C3CCCCC3)ccc2O[C@@H](C)CCCCO[C@@H]1CN(C)C(=O)Nc1cccc2ccccc12	-22.9% (inactive)
C[C@H](CO)N1C[C@H](C)[C@H](CN(C)C(=O)Nc2ccccc2)OCCCC[C@H](C)Oc2ccc(NC(=O)Nc3ccc4c(c3)OCO4)cc2C1=O	-21.2% (inactive)
C[C@H](CO)N1C[C@H](C)[C@H](CN(C)C(=O)Nc2ccc(F)cc2)OCCCC[C@H](C)Oc2ccc(NC(=O)C3CC3)cc2C1=O	2.37% (inactive)
C[C@H](CO)N1C[C@H](C)[C@H](CN(C)C(=O)Nc2ccc3c(c2)OCO3)OCCCC[C@H](C)Oc2ccc(NC(=O)NC3CCCCC3)cc2C1=O	-4.36% (inactive)
CC(=O)Nc1ccc2c(c1)C(=O)N([C@H](C)CO)C[C@H](C)[C@H](CN(C)C(=O)Nc1ccc(F)cc1)OCCCC[C@H](C)O2	-6.53% (inactive)
C[C@@H]1CCCCO[C@@H](CN(C)C(=O)Nc2cccc3ccccc23)[C@H](C)CN([C@@H](C)CO)C(=O)c2cc(NC(=O)C3CCCCC3)ccc2O1	-18.7% (inactive)
C[C@H](CO)N1C[C@H](C)[C@H](CN(C)C(=O)Nc2cccc(F)c2)OCCCC[C@H](C)Oc2ccc(NC(=O)C3CCCCC3)cc2C1=O	-12.5% (inactive)
C[C@H](CO)N1C[C@H](C)[C@H](CN(C)C(=O)Nc2ccc(F)cc2)OCCCC[C@H](C)Oc2ccc(NC(=O)C3CCCCC3)cc2C1=O	-8.92% (inactive)
C[C@H](CO)N1C[C@H](C)[C@H](CN(C)C(=O)Nc2ccccc2)OCCCC[C@H](C)Oc2ccc(NC(=O)Nc3ccccc3)cc2C1=O	3.79% (inactive)
C[C@H](CO)N1C[C@H](C)[C@H](CN(C)C(=O)Nc2cccc3ccccc23)OCCCC[C@H](C)Oc2ccc(NC(=O)C3CCCCC3)cc2C1=O	-19% (inactive)
C[C@H](CO)N1C[C@H](C)[C@H](CN(C)C(=O)Nc2ccc3ccccc3c2)OCCCC[C@H](C)Oc2ccc(NC(=O)C3CCCCC3)cc2C1=O	2.71% (inactive)
COc1ccc(NC(=O)N(C)C[C@@H]2OCCCC[C@H](C)Oc3ccc(NC(=O)C4CCCCC4)cc3C(=O)N([C@H](C)CO)C[C@@H]2C)cc1	-14.8% (inactive)
C[C@H](CO)N1C[C@H](C)[C@H](CN(C)C(=O)Nc2cccc3ccccc23)OCCCC[C@H](C)Oc2ccc(NC(=O)CCC(F)(F)F)cc2C1=O	-6.54% (inactive)
C[C@H]1CCCCO[C@@H](CN(C)C(=O)Nc2ccccc2)[C@@H](C)CN([C@@H](C)CO)C(=O)c2cc(NC(=O)NC3CCCCC3)ccc2O1	-3.65% (inactive)

Compound	activity change, negative = cytotoxicity
C[C@H](CO)N1C[C@H](C)[C@H](CN(C)C(=O)Nc2ccc(F)cc2)OCCCC[C@H](C)Oc2ccc(NC(=O)Nc3ccccc3)cc2C1=O	-4.11% (inactive)
C[C@H](CO)N1C[C@H](C)[C@H](CN(C)C(=O)Nc2ccccc2F)OCCCC[C@H](C)Oc2ccc(NC(=O)C3CCCCC3)cc2C1=O	-18.7% (inactive)
C[C@@H]1CCCCO[C@@H](CN(C)C(=O)Nc2cccc3ccccc23)[C@@H](C)CN([C@H](C)CO)C(=O)c2cc(NC(=O)C3CCCCC3)ccc2O1	-24.4% (inactive)
CC(C)(C)c1ccc(-c2nc(-c3ccncc3)no2)cc1	-8.72% (inactive)
C[C@@H]1CCCCO[C@@H](CN(C)C(=O)Nc2cccc3ccccc23)[C@H](C)CN([C@H](C)CO)C(=O)c2cc(NC(=O)C3CCCCC3)ccc2O1	-11.3% (inactive)
C[C@H](CO)N1C[C@H](C)[C@H](CN(C)C(=O)Nc2ccc(C(F)(F)F)cc2)OCCCC[C@H](C)Oc2ccc(NC(=O)NC3CCCCC3)cc2C1=O	-9.21% (inactive)
C[C@@H]1CCCCO[C@H](CN(C)C(=O)Nc2cccc3ccccc23)[C@@H](C)CN([C@@H](C)CO)C(=O)c2cc(NC(=O)C3CCCCC3)ccc2O1	-19.7% (inactive)
C[C@H](CO)N1C[C@H](C)[C@H](CN(C)C(=O)Nc2ccc(F)cc2)OCCCC[C@H](C)Oc2ccc(NC(=O)C3CCC3)cc2C1=O	-1.54% (inactive)
COc1ccc(NC(=O)N(C)C[C@@H]2OCCCC[C@H](C)Oc3ccc(NC(=O)NC4CCCCC4)cc3C(=O)N([C@H](C)CO)C[C@@H]2C)cc1	3.04% (inactive)
C[C@H]1CCCCO[C@@H](CN(C)C(=O)Nc2ccc(F)cc2)[C@@H](C)CN([C@@H](C)CO)C(=O)c2cc(NC(=O)C3CCCCC3)ccc2O1	-21.4% (inactive)
C[C@@H]1CCCCO[C@H](CN(C)C(=O)Nc2cccc3ccccc23)[C@H](C)CN([C@H](C)CO)C(=O)c2cc(NC(=O)C3CCCCC3)ccc2O1	-21.8% (inactive)
Cc1ccc(NC(=O)N(C)C[C@@H]2OCCCC[C@H](C)Oc3ccc(NC(=O)C4CCCCC4)cc3C(=O)N([C@H](C)CO)C[C@@H]2C)cc1	-2.73% (inactive)
C[C@H]1CCCCO[C@@H](CN(C)C(=O)Nc2ccc3c(c2)OCO3)[C@@H](C)CN([C@@H](C)CO)C(=O)c2cc(NC(=O)NC3CCCCC3)ccc2O1	-15% (inactive)
C[C@H](CO)N1C[C@H](C)[C@@H](CN(C)C(=O)Nc2cccc3ccccc23)OCCCC[C@H](C)Oc2ccc(NC(=O)C3CCCCC3)cc2C1=O	-15.8% (inactive)
C[C@H](CO)N1C[C@H](C)[C@H](CN(C)C(=O)Nc2cccc3ccccc23)OCCCC[C@H](C)Oc2ccc(NC(=O)c3ccccc3)cc2C1=O	-18.3% (inactive)
C[C@H](CO)N1C[C@H](C)[C@H](CN(C)C(=O)Nc2ccccc2)OCCCC[C@H](C)Oc2ccc(NC(=O)C3CCCCC3)cc2C1=O	-8.81% (inactive)
C[C@H](CO)N1C[C@H](C)[C@H](CN(C)C(=O)Nc2ccc(F)cc2)OCCCC[C@H](C)Oc2ccc(NC(=O)Nc3ccc(F)cc3)cc2C1=O	-13.3% (inactive)
C[C@H](CO)N1C[C@H](C)[C@H](CN(C)C(=O)Nc2ccc(F)cc2)OCCCC[C@H](C)Oc2ccc(NC(=O)NC3CCCCC3)cc2C1=O	-3.88% (inactive)
C[C@H](CO)N1C[C@H](C)[C@H](CN(C)C(=O)Nc2ccc3c(c2)OCO3)OCCCC[C@H](C)Oc2ccc(NC(=O)C3CCCCC3)cc2C1=O	-3.37% (inactive)
